Source: ChEMBL document CHEMBL4420076, “Amylin and calcitonin receptor agonist” (2017)
Peptide text beside a SMILES is read from it. * marks the point of attachment. C18 diacid = O=C(O)CCCCCCCCCCCCCCCCC(=O)*

Key:
[1] = molecular target: T1, Amylin receptor AMY3; CALCR/RAMP3 (Homo sapiens, UniProt O60896+P30988); test: Agonist activity at human amylin receptor expressed in BHK570 cells co-expressing RAMP3 assessed as increase in intracellular cAMP concentration incubated for 3 hrs in absence of albumin by CRE luciferase reporter gene assay; assay type: functional, cell-based
T1 sequence (P30988 whole entry): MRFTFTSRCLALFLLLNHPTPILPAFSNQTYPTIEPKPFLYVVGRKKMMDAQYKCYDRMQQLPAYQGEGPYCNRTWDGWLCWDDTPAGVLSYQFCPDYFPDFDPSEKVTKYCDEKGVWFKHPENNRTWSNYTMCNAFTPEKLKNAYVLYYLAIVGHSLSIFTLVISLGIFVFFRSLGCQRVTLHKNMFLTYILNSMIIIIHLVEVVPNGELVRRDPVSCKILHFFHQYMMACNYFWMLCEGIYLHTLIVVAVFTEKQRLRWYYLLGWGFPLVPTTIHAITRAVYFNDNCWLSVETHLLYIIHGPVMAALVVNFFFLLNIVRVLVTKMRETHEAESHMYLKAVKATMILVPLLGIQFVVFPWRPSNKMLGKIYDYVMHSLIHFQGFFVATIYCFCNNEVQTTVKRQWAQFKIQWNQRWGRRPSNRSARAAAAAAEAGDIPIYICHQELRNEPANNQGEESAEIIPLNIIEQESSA
T1 sequence (O60896 whole entry): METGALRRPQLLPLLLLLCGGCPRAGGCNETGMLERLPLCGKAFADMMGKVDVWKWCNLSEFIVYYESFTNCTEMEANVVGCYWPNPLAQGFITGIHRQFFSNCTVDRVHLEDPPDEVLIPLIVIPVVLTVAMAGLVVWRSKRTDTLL

[2] = molecular target: T2, Calcitonin receptor (Homo sapiens, UniProt P30988); test: Agonist activity at human calcitonin receptor expressed in BHK570 cells assessed as increase in intracellular cAMP concentration incubated for 3 hrs in absence of albumin by CRE luciferase reporter gene assay; assay type: functional, cell-based
T2 sequence (P30988 whole entry): T1 sequence (P30988 whole entry)

[3] = Solubility in 100 mM glycylglycine buffer at pH 3.0 incubated for 18 hrs by UPLC analysis; assay type: physicochemical
[4] = Solubility in 100 mM glycylglycine buffer at pH 4.0 incubated for 18 hrs by UPLC analysis; assay type: physicochemical
[5] = Solubility in 100 mM bistrispropane buffer at pH 6.0 incubated for 18 hrs by UPLC analysis; assay type: physicochemical
[6] = Solubility in 100 mM glycylglycine buffer at pH 5.0 incubated for 18 hrs by UPLC analysis; assay type: physicochemical
[7] = Solubility in 100 mM bistrispropane buffer at pH 6.5 incubated for 18 hrs by UPLC analysis; assay type: physicochemical
[8] = Solubility in 100 mM bistrispropane buffer at pH 7.0 incubated for 18 hrs by UPLC analysis; assay type: physicochemical
[9] = Solubility in 100 mM bistrispropane buffer at pH 7.5 incubated for 18 hrs by UPLC analysis; assay type: physicochemical
[10] = Solubility in 100 mM bistrispropane buffer at pH 8.0 incubated for 18 hrs by UPLC analysis; assay type: physicochemical
[11] = molecular target: T1, Amylin receptor AMY3; CALCR/RAMP3; test: Displacement of [125I]-labeled rat amylin from human amylin receptor expressed in BHK tkts13 whole cells co-expressing RAMP3 incubated for 60 mins by scintillation proximity assay; assay type: cell-based

Row | Compound | EC50 [1] [nM] | EC50 [2] [nM] | solubility at 18 h [3] [µM] | solubility at 18 h [4] [µM] | solubility at 18 h [5] [µM] | solubility at 18 h [6] [µM] | solubility at 18 h [7] [µM] | solubility at 18 h [8] [µM] | solubility at 18 h [9] [µM] | solubility at 18 h [10] [µM] | IC50 [11] [nM]
1 | CC(C)C[C@H](NC(=O)[C@H](C)NC(=O)[C@H](C)NC(=O)[C@@H](NC(=O)[C@H](Cc1cnc[nH]1)NC(=O)[C@H](CC(C)C)NC(=O)[C@H](CCC(=O)O)NC(=O)[C@H](CO)NC(=O)[C@H](C)NC(=O)[C@H](CCC(=O)O)NC(=O)CCCCCCCCCCCCCCCCC(=O)O)[C@@H](C)O)C(=O)NCC(=O)N[C@@H](CCCNC(=N)N)C(=O)N[C@@H](CC(C)C)C(=O)N[C@@H](CO)C(=O)N[C@@H](C)C(=O)N[C@@H](CCC(=O)O)C(=O)N[C@@H](CC(C)C)C(=O)N[C@@H](Cc1cnc[nH]1)C(=O)N[C@@H](CCC(=O)O)C(=O)N[C@@H](CC(C)C)C(=O)N[C@@H](C)C(=O)N[C@H](C(=O)N[C@@H](CC(C)C)C(=O)N1CCC[C@H]1C(=O)N[C@@H](CCCNC(=N)N)C(=O)N[C@H](C(=O)N[C@@H](CCC(=O)O)C(=O)N[C@H](C(=O)NCC(=O)N1CCC[C@H]1C(=O)N[C@@H](CCC(=O)O)C(=O)N[C@@H](CO)C(=O)N1CCC[C@H]1C(N)=O)[C@@H](C)O)[C@@H](C)O)[C@@H](C)O ({C18 diacid}-EASELHTAALGRLSAELHELATLPRTETGPESP-NH2) | 0.015 | 0.009 | ≥ 200 | ≥ 200 | ≥ 200 | ≥ 200 | ≥ 200 | ≥ 200 | ≥ 200 | ≥ 200 | 1.31
2 | CC[C@H](C)[C@H](NC(=O)[C@H](CCC(=O)O)NC(=O)[C@H](C)NC(=O)[C@H](CO)NC(=O)[C@H](CC(C)C)NC(=O)[C@H](CCCNC(=N)N)NC(=O)CNC(=O)[C@H](CC(C)C)NC(=O)[C@H](C)NC(=O)[C@H](C)NC(=O)[C@@H](NC(=O)[C@H](CO)NC(=O)[C@H](CC(C)C)NC(=O)[C@H](CCC(=O)O)NC(=O)[C@H](CO)NC(=O)[C@H](C)NC(=O)[C@H](CCC(=O)O)NC(=O)CCCCCCCCCCCCCCCCC(=O)O)[C@@H](C)O)C(=O)N[C@@H](Cc1cnc[nH]1)C(=O)N[C@@H](CCC(=O)O)C(=O)N[C@@H](CC(C)C)C(=O)N[C@@H](C)C(=O)N[C@H](C(=O)N[C@@H](CC(C)C)C(=O)N1CCC[C@H]1C(=O)N[C@@H](CCCNC(=N)N)C(=O)N[C@H](C(=O)N[C@@H](CCC(=O)O)C(=O)N[C@H](C(=O)NCC(=O)N1CCC[C@H]1C(=O)N[C@@H](CCC(=O)O)C(=O)N[C@@H](CO)C(=O)N1CCC[C@H]1C(N)=O)[C@@H](C)O)[C@@H](C)O)[C@@H](C)O ({C18 diacid}-EASELSTAALGRLSAEIHELATLPRTETGPESP-NH2) | 0.007 | 0.005 | ≥ 200 | ≥ 200 | ≥ 200 | ≥ 200 | ≥ 200 | ≥ 200 | ≥ 200 | ≥ 200 | 1.48
3 | CC[C@H](C)[C@H](NC(=O)[C@H](CCC(=O)O)NC(=O)[C@H](Cc1cnc[nH]1)NC(=O)[C@H](CC(C)C)NC(=O)[C@H](CCC(=O)O)NC(=O)[C@H](C)NC(=O)[C@H](CO)NC(=O)[C@H](CC(C)C)NC(=O)[C@H](CCCNC(=N)N)NC(=O)CNC(=O)[C@H](CC(C)C)NC(=O)[C@H](C)NC(=O)[C@H](C)NC(=O)[C@@H](NC(=O)[C@H](CO)NC(=O)[C@H](CC(C)C)NC(=O)[C@H](CCC(=O)O)NC(=O)[C@H](CO)NC(=O)[C@H](C)NC(=O)[C@H](CCC(=O)O)NC(=O)CCCCCCCCCCCCCCCCC(=O)O)[C@@H](C)O)C(=O)N[C@@H](C)C(=O)N[C@H](C(=O)N[C@@H](CC(C)C)C(=O)N1CCC[C@H]1C(=O)N[C@@H](CCCNC(=N)N)C(=O)N[C@H](C(=O)N[C@@H](CCC(=O)O)C(=O)N[C@H](C(=O)NCC(=O)N1CCC[C@H]1C(=O)N[C@@H](CCC(=O)O)C(=O)N[C@@H](CO)C(=O)N1CCC[C@H]1C(N)=O)[C@@H](C)O)[C@@H](C)O)[C@@H](C)O ({C18 diacid}-EASELSTAALGRLSAELHEIATLPRTETGPESP-NH2) | 0.006 | 0.005 | ≥ 200 | ≥ 200 | ≥ 200 | ≥ 200 | ≥ 200 | ≥ 200 | ≥ 200 | ≥ 200 | 0.511
4 | CC(C)C[C@H](NC(=O)[C@H](CCC(=O)O)NC(=O)[C@H](Cc1cnc[nH]1)NC(=O)[C@H](CC(C)C)NC(=O)[C@H](CCC(=O)O)NC(=O)[C@H](C)NC(=O)[C@H](CO)NC(=O)[C@H](CC(C)C)NC(=O)[C@H](CCCNC(=N)N)NC(=O)CNC(=O)[C@H](CC(C)C)NC(=O)[C@@H](NC(=O)[C@H](C)NC(=O)[C@@H](NC(=O)[C@H](CO)NC(=O)[C@H](CC(C)C)NC(=O)[C@H](CCC(=O)O)NC(=O)[C@H](CO)NC(=O)[C@H](C)NC(=O)[C@H](CCC(=O)O)NC(=O)CCCCCCCCCCCCCCCCC(=O)O)[C@@H](C)O)C(C)C)C(=O)N[C@@H](C)C(=O)N[C@H](C(=O)N[C@@H](CC(C)C)C(=O)N1CCC[C@H]1C(=O)N[C@@H](CCCNC(=N)N)C(=O)N[C@H](C(=O)N[C@@H](CCC(=O)O)C(=O)N1CCC[C@H]1C(=O)NCC(=O)N1CCC[C@H]1C(=O)N[C@@H](CCC(=O)O)C(=O)N[C@@H](CO)C(=O)N1CCC[C@H]1C(N)=O)[C@@H](C)O)[C@@H](C)O ({C18 diacid}-EASELSTAVLGRLSAELHELATLPRTEPGPESP-NH2) | 0.031 | 0.012 | ≥ 200 | ≥ 200 | ≥ 200 | ≥ 200 | ≥ 200 | ≥ 200 | ≥ 200 | ≥ 200 | 9
5 | CC(C)C[C@H](NC(=O)[C@H](C)NC(=O)[C@H](CC(C)C)NC(=O)[C@@H](NC(=O)[C@H](CO)NC(=O)[C@H](CC(C)C)NC(=O)[C@H](CCC(=O)O)NC(=O)[C@H](CO)NC(=O)[C@H](C)NC(=O)[C@H](CCC(=O)O)NC(=O)CCCCCCCCCCCCCCCCC(=O)O)[C@@H](C)O)C(=O)NCC(=O)N[C@@H](CCCNC(=N)N)C(=O)N[C@@H](CC(C)C)C(=O)N[C@@H](CO)C(=O)N[C@@H](C)C(=O)N[C@@H](CCC(=O)O)C(=O)N[C@@H](CC(C)C)C(=O)N[C@@H](Cc1cnc[nH]1)C(=O)N[C@@H](CCC(=O)O)C(=O)N[C@@H](CC(C)C)C(=O)N[C@@H](C)C(=O)N[C@H](C(=O)N[C@@H](CC(C)C)C(=O)N1CCC[C@H]1C(=O)N[C@@H](CCCNC(=N)N)C(=O)N[C@H](C(=O)N[C@@H](CCC(=O)O)C(=O)N[C@H](C(=O)NCC(=O)N1CCC[C@H]1C(=O)N[C@@H](CCC(=O)O)C(=O)N[C@@H](CO)C(=O)N1CCC[C@H]1C(N)=O)[C@@H](C)O)[C@@H](C)O)[C@@H](C)O ({C18 diacid}-EASELSTLALGRLSAELHELATLPRTETGPESP-NH2) | 0.009 | 0.007 | ≥ 200 | ≥ 200 | ≥ 200 | ≥ 200 | ≥ 200 | ≥ 200 | ≥ 200 | ≥ 200 | 0.275
6 | CC(C)C[C@H](NC(=O)[C@H](CCC(=O)O)NC(=O)[C@H](Cc1cnc[nH]1)NC(=O)[C@H](CC(C)C)NC(=O)[C@H](CCC(=O)O)NC(=O)[C@H](C)NC(=O)[C@H](CO)NC(=O)[C@H](CC(C)C)NC(=O)[C@H](CCCNC(=N)N)NC(=O)CNC(=O)[C@H](CC(C)C)NC(=O)[C@@H](NC(=O)[C@H](C)NC(=O)[C@@H](NC(=O)[C@H](CO)NC(=O)[C@H](CC(C)C)NC(=O)[C@@H]1CCCN1C(=O)[C@H](CO)NC(=O)[C@H](C)NC(=O)[C@H](CCC(=O)O)NC(=O)CCCCCCCCCCCCCCCCC(=O)O)[C@@H](C)O)C(C)C)C(=O)N[C@@H](C)C(=O)N[C@H](C(=O)N[C@@H](CC(C)C)C(=O)N1CCC[C@H]1C(=O)N[C@@H](CCCNC(=N)N)C(=O)N[C@H](C(=O)N[C@@H](CCC(=O)O)C(=O)N[C@H](C(=O)NCC(=O)N1CCC[C@H]1C(=O)N[C@@H](CCC(=O)O)C(=O)N[C@@H](CO)C(=O)N1CCC[C@H]1C(N)=O)[C@@H](C)O)[C@@H](C)O)[C@@H](C)O ({C18 diacid}-EASPLSTAVLGRLSAELHELATLPRTETGPESP-NH2) | 0.014 | 0.007 | ≥ 200 | ≥ 200 | ≥ 200 | ≥ 200 | ≥ 200 | ≥ 200 | ≥ 200 | ≥ 200 | 0.323
